Laboratory results as given in PubChem BioAssay (NCI).
“And” between values parts separate entries of the source, which are not always exact repeats. Identical values can stand only once.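 Test compounds were applied to cells in 96-well plates for 48 hours at 5 doses. GI50 marks 50% less growth. TGI is the concentration that stops growth completely.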

Experiments:
Assay in all cases: inhibition of tumour cell growth, NCI panel, 48 h
[1] = tested on: HT29 colon
[2] = tested on: MOLT-4 leukemia
[3] = tested on: OVCAR-3 ovarian
[4] = tested on: PC-3 prostate
[5] = tested on: RPMI-8226 leukemia
[6] = tested on: SF-268 CNS
[7] = tested on: SF-295 CNS
[8] = tested on: SK-MEL-2 melanoma
[9] = tested on: SK-MEL-5 melanoma
[10] = tested on: SR leukemia

Compound	GI50 [1] [nM]	TGI [1] [µM]	GI50 [2] [nM]	TGI [2]	GI50 [3]	TGI [3] [µM]	GI50 [4] [nM]	TGI [4]	GI50 [5]	TGI [5]	GI50 [6] [nM]	TGI [6]	GI50 [7]	TGI [7]	GI50 [8] [nM]	TGI [8] [µM]	GI50 [9] [nM]	TGI [9] [µM]	GI50 [10] [nM]	TGI [10] [µM]
CCC[n+]1cc2cc3c(cc2c2c1-c1cc4c(cc1C2)OCO4)OCO3 (tested in a mixture with another compound)	1410	16.6	251	3.03 µM	894 nM	4.81	986	7.16 µM	545 nM	5.5 µM	64.9	1.95 µM	470 nM	6.37 µM	530	2.35	371	1.6	287	1.75
OC(CN1CCCC2CCCCC21)c1cc2ccccc2c2ccccc12 (configuration not stated)	1320	3.07	1810	4.79 µM	2820 nM	8.54	2270	10.1 µM	1600 nM	3.87 µM	3640	13.7 µM	1450 nM	3.21 µM	1670	3.31	1670	3.05	1600	3.43
CN(C)C(=S)/N=c1\ssc(=S)n1Cc1ccco1		> 24.4		> 83.7 µM		9.58		> 100 µM		> 100 µM		> 100 µM		> 23 µM		30.3		38.2		> 100
C#CCOc1cccc(Nc2ncnc3cc(NC(=O)C=C)ccc23)c1	3660	> 100	4560	69.1 µM	3700 nM	74.6	8360	> 100 µM	4560 nM	38.8 µM	12600	> 100 µM	14600 nM	> 100 µM	20900	> 100	17300	> 100	2110	> 100
CCCCSc1nc(N)c2cn[nH]c2n1	25500	62.6	26300	> 78 µM	17100 nM	35.1	17900	41.8 µM	17100 nM	37.9 µM	22200	> 59.4 µM	20800 nM	38.8 µM	22200	> 64.6	15500	33.2	14100	36.4
Cc1nc2sc(C(=O)Nc3ccccc3)c(N)c2cc1C(O)c1ccccc1 (configuration not stated)	326	17.6	367	25.5 µM	263 nM	3.3	427	> 71 µM	417 nM	11.7 µM	917	> 100 µM	252 nM	4.29 µM	659	> 100	338	1.63	43.4	> 30.5
C[C@@H](CS[As](C)C)C(=O)N1CCC[C@H]1C(=O)O	715	> 100	93.3	3.69 µM	73.6 nM	0.223	284	1.25 µM	26.2 nM	0.0831 µM	788	6.45 µM	1790 nM	5.32 µM	468	5.88	152	0.436	55.3	0.272
COC(=O)c1c2c(c(C)[n+]([O-])c1C)C(=O)C(NCc1ccc(F)cc1)=CC2=O	711	> 100	1980	5.33 µM	319 nM	1.11	1790	> 100 µM	2000 nM	6.82 µM	2510	9.08 µM	1420 nM	3 µM	1750	4.03	300	1	1700	> 100
O=C1C(Cl)=C(Nc2cc(Cl)ccc2O)C(=O)N1Cc1ccccc1	16400	59.9	29700	> 81.9 µM	18600 nM	35.8	16300	32.6 µM	11900 nM	39.5 µM	17500	35 µM	18300 nM	38.4 µM	20300	53.3	16100	29.9	38600	> 67.7
c1cc(C2CCCCC2)ccc1-c1cnc2nonc2n1	603	3.27	393	> 56.5 µM	557 nM	1.97	789	2.56 µM	400 nM	2.79 µM	2130	9.29 µM	1640 nM	4.32 µM	1310	3.62	1290	2.62	348	
Cc1c(NC(=O)Nc2c(Cl)cccc2Cl)c(=O)n(-c2ccccc2)n1C		> 100		> 100 µM		> 100		> 100 µM		> 100 µM		> 100 µM		> 100 µM		> 100		> 100		> 100
Cc1ccc(N=Nc2c(O)ccc3n[nH]nc23)cc1	31800	> 100	2890	12.8 µM	4310 nM	22.2	5990	> 100 µM	5520 nM	55.4 µM	14900	77.5 µM	11300 nM	38 µM	19000	59.4	3190	13.2	14000	64.8
C=C1C(=O)O[C@@H]2CC(CO)=C([C@@H](C)CCCO)[C@@H](OC(=O)/C(C)=C\C)[C@H]12		26.6		33.4 µM		26.2		45.7 µM		31 µM		50.2 µM		> 100 µM		70.5		34.6		8.22
CC(C)c1[nH]nc2c(NCc3ccc(-c4ccccn4)cc3)nc(SCCN)nc12	5.03	10.1	5.05	0.169 µM and 0.102 µM	18.9 nM and 16.2 nM	10.1	25.7	4.11 µM and 12.3 µM	15.1 nM and 16.7 nM	0.0847 µM and 0.0831 µM	6.84	7.12 µM and 5.24 µM	39.1 nM and 42.5 nM	0.712 µM and 2.03 µM	30.6	0.105			12.6	2.03
